We go through two compounds from patent publication US11179445B2, “Pharmaceutical composition and biomaterial comprising fusion peptide in which bone tissue-selective peptide bound to parathyroid hormone (PTH) or fragment thereof” (Nano Intelligent Biomedical Engineering Corporation Co. Ltd., priority 2017, dated 2021).

The term half-life denotes the time in which the quantity being followed falls by half.

The conditions of data set [1]: cited from earlier work.
A short description of data set [2]: Concentration of calcium in blood of osteoporosis-induced mice (QuantiChrom calcium assay kit). Format: in vivo. Particulars: ovariectomized ICR mice; PTH 20 μg/kg daily for 3 months, fusion peptide 80 pg/kg weekly for 6 months. The procedure: Six week-old ICR mice were anesthetized by intramuscular injection using a mixture of 10 mg/kg of xylazine (Rompun®, Bayer, Korea) and 100 mg/kg of ketamine (Ketalar®, Yuhan Co., Ltd., Korea) and then the ovaries present below the bilateral kidneys were entirely removed carefully. Suturing was performed by an ordinary method and 3 mg/kg of gentamicin (Gentamycin®, JW Pharmaceutical Corporation, Korea) was intramuscularly injected.
Three months after the ovariectomy, whether or not bone loss occurred was checked. […] The change in bone density was evaluated, as compared with a group not treated with osteoporosis.
The concentration of calcium in blood was determined using a QuantiChrom™ calcium assay kit (Bioassay Systems, Hayward, Calif.). […] One of the effects of PTH on the human body is to increase the concentration of calcium in blood by affecting bones and kidneys. Therefore, long-term administration of PTH causes side effects that induce hypercalcemia.

Where only a bound is given, the exact number is not on record here.

For the compound `CC[C@H](C)[C@H](NC(=O)[C@H](CCC(=O)O)NC(=O)[C@H](CO)NC(=O)[C@@H](NC(=O)[C@@H](N)CO)C(C)C)C(=O)N[C@@H](CCC(N)=O)C(=O)N[C@@H](CC(C)C)C(=O)N[C@@H](CCSC)C(=O)N[C@@H](Cc1cnc[nH]1)C(=O)N[C@@H](CC(N)=O)C(=O)N[C@@H](CC(C)C)C(=O)NCC(=O)N[C@@H](CCCCN)C(=O)N[C@@H](Cc1cnc[nH]1)C(=O)N[C@@H](CC(C)C)C(=O)N[C@@H](CC(N)=O)C(=O)N[C@@H](CO)C(=O)N[C@@H](CCSC)C(=O)N[C@@H](CCC(=O)O)C(=O)N[C@@H](CCCN=C(N)N)C(=O)N[C@H](C(=O)N[C@@H](CCC(=O)O)C(=O)N[C@@H](Cc1c[nH]c2ccccc12)C(=O)N[C@@H](CC(C)C)C(=O)N[C@@H](CCCN=C(N)N)C(=O)N[C@@H](CCCCN)C(=O)N[C@@H](CCCCN)C(=O)N[C@@H](CC(C)C)C(=O)N[C@@H](CCC(N)=O)C(=O)N[C@@H](CC(=O)O)C(=O)N[C@H](C(=O)N[C@@H](Cc1cnc[nH]1)C(=O)N[C@@H](CC(N)=O)C(=O)N[C@@H](Cc1ccccc1)C(=O)O)C(C)C)C(C)C` [Forteo], in data set [1] (subcutaneous injection once a day), the half-life was not above 1 h. Also, the side effects entry in data set [1] (upon use for a long time of 2 years or longer) was “hypercalcemia and even a high incidence of osteosarcoma”.

Regarding `CC[C@H](C)[C@H](NC(=O)[C@H](CCC(=O)O)NC(=O)[C@H](CO)NC(=O)[C@@H](NC(=O)[C@@H](N)CO)C(C)C)C(=O)N[C@@H](CCC(N)=O)C(=O)N[C@@H](CC(C)C)C(=O)N[C@@H](CCSC)C(=O)N[C@@H](Cc1cnc[nH]1)C(=O)N[C@@H](CC(N)=O)C(=O)N[C@@H](CC(C)C)C(=O)NCC(=O)N[C@@H](CCCCN)C(=O)N[C@@H](Cc1cnc[nH]1)C(=O)N[C@@H](CC(C)C)C(=O)N[C@@H](CC(N)=O)C(=O)N[C@@H](CO)C(=O)N[C@@H](CCSC)C(=O)N[C@@H](CCC(=O)O)C(=O)N[C@@H](CCCN=C(N)N)C(=O)N[C@H](C(=O)N[C@@H](CCC(=O)O)C(=O)N[C@@H](Cc1c[nH]c2ccccc12)C(=O)N[C@@H](CC(C)C)C(=O)N[C@@H](CCCN=C(N)N)C(=O)N[C@@H](CCCCN)C(=O)N[C@@H](CCCCN)C(=O)N[C@@H](CC(C)C)C(=O)N[C@@H](CCC(N)=O)C(=O)N[C@@H](CC(=O)O)C(=O)N[C@H](C(=O)N[C@@H](Cc1cnc[nH]1)C(=O)N[C@@H](CC(N)=O)C(=O)N[C@@H](Cc1ccccc1)C(=O)O)C(C)C)C(C)C` [PTH, reference compound], the “concentration of calcium in blood” value in data set [2] is recorded as “increased the concentration of calcium at one month”.
